Measured values from patent publication US20050227918A1, “Method for assaying susceptibility to cancer therapy in a subject by assaying for tumors of P53” (priority 2004, published 2005).
“Also recorded” adds a separate entry of the source. d = 2'-deoxy (DNA); r = 2'-OH (RNA)

What was measured:
p53 [1] = experiment: siRNA and drug effect on p53 levels in squamous carcinoma cell lines (Western blotting); assay type: cell-based; details: head and neck squamous cells; siRNA 100 nM; doxorubicin 1 μg/ml, taxol 500 ng/ml, cisplatin 10 μg/ml; 24 hours
Protocol: After 24 hours, cell lysates were prepared and analyzed via Western blotting.

H1299 cells = experiment: Colony-survival assays of H1299 cells expressing p53 variants; assay type: cell-based, Human
Protocol: The cytotoxicity of anticancer agents was determined in colony-survival assays of H1299 cells using standard protocols, following Bergamaschi, et al., supra, and as per the earlier examples. Briefly, H1299 cells were treated with doxycycline to induce p53 and plated at multiple densities. […] After drug exposure, cells were re-plated in drug free medium and grown until the appearance of visible colonies. Each drug exposure was done in triplicate in at least three experiments.
Further tests were performed to see if 46S influences cellular sensitivity to anticancer drugs in 72R-expressing cells.

H1299 p53-/- cells = experiment: Flow cytometric analysis of apoptosis (sub-G1) and cell cycle in H1299 cells inducibly expressing 72R or 72P wild-type p53; assay type: cell-based, Human; details: for difference in apoptosis between 72R and 72P: H1299 clones, doxorubicin 1 μg/ml; for difference in apoptosis between 72R and 72P / apoptosis (sub-G1 fraction), 72R versus 72P expressing cells: camptothecin 5 μM, 24 hours; for apoptosis (sub-G1 fraction), 72R versus 72P expressing cells: induced H1299, 5-FU 50 μg/ml, cisplatin, taxol, etoposide, doxorubicin; for apoptosis and cell cycle effect on induction of 72P p53: H1299 induced to express 72P wild-type p53; for apoptosis and cell cycle effect on induction of 72P p53 / apoptosis and cell cycle effect on induction of 72R p53: cisplatin 1 μg/ml, taxol 500 ng/ml, flow cytometry after 24 hours; for apoptosis and cell cycle effect on induction of 72R p53: H1299 induced to express 72R wild-type p53
Description: 72R and 72P wild-type p53 plasmids were constructed by subcloning the inserts from pArgSP53 and pProSP53 (See Matlashewski, et al., Mol. Cell. Biol., 7:961-963 (1987), incorporated by reference) into commercially available pTRE, resulting in pTRE 72R p53 and pTRE 72P p53 plasmids. Human H1299 p53−/− cells, which were maintained in DMEM+10% fetal bovine serum, were transfected with the pTRE 72R p53 and pTRE 72P p53 plasmids in accordance with standard procedures, resulting in H1299 cells lines which inducibly express 72R or 72P p53 protein. These cell lines were grown in DMEM 10% FCS supplemented with 0.5 mg/ml G418 and 0.5 μg/ml puromycin. Expression of 72R or 72P wild-type p53 was induced in H1299 cells by doxycycline or non-induced. […] Control cells were not exposed to drugs. Flow cytometric analysis was then performed after 24 hours as described in Bergamaschi et al., Cancer Cell, 3:387-402 (2003), incorporated by reference. A minimum of six independent 72R-inducible and 72P-inducible clones were analyzed, to obviate the effect of clonal variation.
Further tests examined the cellular responses to the anticancer agents camptothecin and 5-fluorouracil (FU). H1299 cells were induced to express equal levels of 72R or 72P wild-type p53, as described supra, or not induced. […] The cells were then exposed to camptothecin (5 μM) or 5-FU (50 μg/ml). Flow cytometric analysis was performed after 24 hours.
Three experiments were conducted, each analyzing two independent clones of 72R-expressing H1299 cells and two independent clones of 72P-expressing H1299 cells. […] Control cells were not exposed to drugs, and control cells for camptothecin and 5-FU received the drug vehicle only. After 24 hours, apoptosis was determined by flow cytometry as previously described.

Saos-2 cells [2] = experiment: Apoptosis (sub-G1) in Saos-2 cells expressing dominant-negative p73 inhibitors; assay type: cell-based; details: for sensitivity to apoptosis of Saos-2 cells expressing p73Δ2 and p73DD: dominant-negative p73 inhibitors; for sensitivity to apoptosis of Saos-2 lines expressing p73DD (L371P): inactive point mutation
Protocol: The Saos-2 cells were maintained, as described, supra, and cell lines stably expressing the dominant negative inhibitors were generated by transfection, and then cultivation in the presence of 400 μg/ml of G418. Isolated colonies were ring cloned, and then the expression of transfected sequences was confirmed.
The cells, when in exponential growth phase, received 10 μg of a plasmid encoding p73, and 3 μg of pcDNA3CD20. Twenty-four hours after transfection, cells were harvested, stained with propidiumiodide, and apoptosis was determined as percentage of sub-G1 cells.
In brief, this was determined by seeding 10^2-10^6 cells, in quadruplicate, onto 9 cm tissue culture dishes, and were treated, 24 hours later, for 2 hours, with cytotoxic drugs at various concentrations. Following drug exposure, the cells were grown until visible colonies appeared. They were then fixed in methanol, and stained with Giemsa. Survival was calculated relative to the cells receiving the drug vehicle alone.

p73 = experiment: Western blotting of endogenous p73 steady state levels following drug treatment; assay type: cell-based; details: 24 hours; for levels of p73 in HN30: head and neck squamous cell line HN30
Protocol: The squamous carcinoma cell lines (“SCC”) tested included cells of the head and neck, cervix, vulva, and immortalized skin […]. […] The cells were exposed to the drugs for 24 hours, after which they were harvested in a lysis buffer (50 mM Tris, 250 mM NaCl, 0.1% Nonidet NP-40, 5 mM EDTA, 1 mM PMSF, with a protease inhibitor cocktail). […] The immunoprecipitates were then resolved, on 10% polyacrylamide gels, and immunoblotted with the antibody, and a secondary anti-mouse light chain antibody conjugated to horseradish peroxidase, which was then visualized using standard methods.

p53 [3] = experiment: Western Blot analysis of p53 expression in transfected H1299 cells; assay type: cell-based, Human; details: cisplatin 1 μg/ml, 24 hours; each of the four variants 46A/46S 72R/72P
Protocol: H1299 cells were cotransfected with pcDNA3 CD20 and plasmids expressing 46A 72R, 46A 72P, 46S 72R, or 46S 72P wild-type p53 or with an empty vector (no p53, as a control), as described supra. […] After 24 hours, the cells were analyzed by flow cytometry. Western Blot analysis of p53 expression was also performed.

Hacat cells = experiment: Drug-induced apoptosis after p53 siRNA; assay type: cell-based; details: 100 nM siRNA, drugs 48 hours later
p53 [4] = experiment: siRNA effect on steady state levels of p53 mutant in cells expressing 72P 173L or 72R 173L; assay type: cell-based; details: siRNA 10-100 μM as printed
Protocol: To investigate this small inhibitory RNA (“siRNA”) oligonucleotides were used. The sequences:
The siRNA oligos were transfected into cells, in amounts ranging from 10-100 μM, using commercially available reagents. The siRNA was introduced into cells expressing either the 72P 173L mutant or the 72R173L mutant. Both were shown, supra, to inhibit p73.

Saos-2 cells [5] = assay type: cell-based
Protocol: The Saos-2 cells which had been engineered to stably express 72R and 72P mutants were then tested, in assays designed to determine whether p53 siRNA impacted drug resistance. Saos-2 cells which expressed 72R173Lp53 were treated with 100 nM of siRNA for p53, or with the same amount of PGL siRNA. […] Survival was assessed via colony forming ability.

p53-p73 complexes = p53-p73 complexes and p73 in Hacat cells after siRNA and drug treatment; assay type: cell-based; details: 100 nM siRNA
Protocol: As a follow up to the work, supra, experiments were carried out to determine if the siRNA influenced association of the mutant p53 molecules with p73. […] Cell lysates were prepared after 24 hours, and p53-p73 complexes were analyzed, as described supra.

Q: Which results are given for `COc1cccc2c1C(=O)c1c(O)c3c(c(O)c1C2=O)C[C@@](O)(C(=O)CO)C[C@@H]3O[C@H]1C[C@H](N)[C@H](O)[C@H](C)O1` [doxorubicin]?
A: p53 levels (p53 [1]): unaffected; cytotoxic effect in cells expressing 46A 72R p53 relative to 46S 72R p53 (H1299 cells): diminished; sensitivity of cells expressing 46A 72P p53 versus 46S 72P p53 (H1299 cells): similar; difference in apoptosis between 72R and 72P (H1299 p53-/- cells): eightfold; sensitivity to apoptosis of Saos-2 cells expressing p73Δ2 and p73DD (Saos-2 cells [2]): less sensitive to apoptosis; sensitivity to apoptosis of Saos-2 lines expressing p73DD (L371P) (Saos-2 cells [2]): sensitivity similar to control Saos-2 cells; p73 level, all cell lines (p73; 1 μg/ml doxorubicin, squamous carcinoma cell lines and Saos-2): increased p73 in all cell lines; levels of p73 in HN30 (p73): increased the levels of p73

Q: For `CC[C@@]1(O)C(=O)OCc2c1cc1n(c2=O)Cc2cc3ccccc3nc2-1` [camptothecin], which “difference in apoptosis between 72R and 72P” value (H1299 p53-/- cells) is on record?
A: Its value is “twofold”.

Q: And the “apoptosis (sub-G1 fraction), 72R versus 72P expressing cells” value (H1299 p53-/- cells)?
A: Its value is “apoptosis was always higher in cells expressing the 72R p53 variant”.

Q: What does the source list for `N.N.[Cl][Pt][Cl]` [cisplatin]?
A: levels of p53 protein after treatment (p53 [3]): increased; p53 levels (p53 [1]): unaffected; sensitivity of cells expressing 46A 72P p53 versus 46S 72P p53 (H1299 cells): similar; apoptosis and cell cycle effect on induction of 72P p53 (H1299 p53-/- cells): minimal apoptosis but predominantly G1 arrest; apoptosis and cell cycle effect on induction of 72R p53 (H1299 p53-/- cells): increased sub-G1 fraction and a smaller G1 peak; sensitivity to apoptosis of Saos-2 cells expressing p73Δ2 and p73DD (Saos-2 cells [2]): less sensitive to apoptosis; sensitivity to apoptosis of Saos-2 lines expressing p73DD (L371P) (Saos-2 cells [2]): sensitivity similar to control Saos-2 cells; levels of p73 in HN30 (p73): increased the levels of p73

Q: With `O=c1[nH]cc(F)c(=O)[nH]1` [5-FU, 5-fluorouracil] as the molecule, how does the “apoptosis (sub-G1 fraction), 72R versus 72P expressing cells” value (H1299 p53-/- cells) read?
A: The value was “apoptosis was always higher in cells expressing the 72R p53 variant”.

Q: “p53 siRNA: small inhibitory RNA oligonucleotides, SEQ ID NO: 1 CUACUUCCUGAAAACAACG(d)TT and SEQ ID NO: 2 CGUUGUUUUCAGGAAGUAGd(TT) (chain 1 CUACUUCCUGAAAACAACGTT; chain 2 CGUUGUUUUCAGGAAGUAGTT; sugars from the 5' end r19 d2, backbone not given here)” was tested. Which “apoptosis after siRNA followed by anticancer drugs, compared to controls” value (Hacat cells) did it give?
A: Its value is “clear increase in apoptosis”.

Q: And the p53 levels (p53 [1])?
A: The p53 levels was “reduced steady state levels of p53; also recorded: downregulated”.

Q: What about the “steady state levels of p53 polymorphic variants of the mutant” value (p53 [4]) of the same molecule?
A: Its value is “dose dependent reduction”.

Q: And the “effect of siRNA on drug sensitivity, 143L mutant” value (Saos-2 cells [5]; Saos-2)?
A: The value was “similarly small effect”.

Q: What about the “sensitivity to cisplatin and doxyrubicin of cell lines expressing 175H, 179Y, 179R, 245S, 248W, 249S, 273C and 282W” value (Saos-2 cells [5]; both polymorphic forms) of the same molecule?
A: Its value is “increased sensitivity”.

Q: And the “amount of p53 which associated with p73” value (p53-p73 complexes)?
A: Its value is “clear decrease”.

Q: What about the “increase in p73 production associated with drug exposure” value (p53-p73 complexes) of the same molecule?
A: Its value is “not affected”.

Q: For `CC(=O)O[C@H]1C(=O)[C@@]2(C)[C@H]([C@H](OC(=O)c3ccccc3)[C@]3(O)C[C@H](OC(=O)[C@H](O)[C@@H](NC(=O)c4ccccc4)c4ccccc4)C(C)=C1C3(C)C)[C@]1(OC(C)=O)CO[C@@H]1C[C@@H]2O` [taxol], which p53 levels (p53 [1]) is on record?
A: Its p53 levels is “unaffected”.

Q: And the “apoptosis and cell cycle effect on induction of 72P p53” value (H1299 p53-/- cells)?
A: The value was “minimal apoptosis but predominantly G1 arrest”.

Q: What about the “apoptosis and cell cycle effect on induction of 72R p53” value (H1299 p53-/- cells) of the same molecule?
A: Its value is “increased sub-G1 fraction and a smaller G1 peak”.

Q: What about the “sensitivity to apoptosis of Saos-2 cells expressing p73Δ2 and p73DD” value (Saos-2 cells [2]) of the same molecule?
A: The value was “less sensitive to apoptosis”.

Q: What about the “sensitivity to apoptosis of Saos-2 lines expressing p73DD (L371P)” value (Saos-2 cells [2]) of the same molecule?
A: The value was “sensitivity similar to control Saos-2 cells”.

Q: And the “levels of p73 in HN30” value (p73)?
A: The value was “increased the levels of p73”.
